Assay results from ChEMBL document CHEMBL2440076, “New triarylpyrazoles as broad-spectrum anticancer agents: design, synthesis, and biological evaluation” (Eur J Med Chem, 2013).

Tests used:
Assay type in all cases: functional
HL-60(TB) = experiment: Growth inhibition of human HL-60(TB) cells assessed as cell growth at 5X10'-6 M after 48 hrs by sulforhodamine B assay; conditions: HL-60, 48 h, read-out: Activity
SK-MEL-5 = experiment: Growth inhibition of human SK-MEL-5 cells assessed as cell growth at 5X10'-6 M after 48 hrs by sulforhodamine B assay; conditions: SK-MEL-5, 48 h, read-out: Activity
KM12 [1] = experiment: Growth inhibition of human KM12 cells assessed as cell growth at 5X10'-7 M after 48 hrs by sulforhodamine B assay; conditions: KM12, 48 h, read-out: Activity
RPMI-8226 = experiment: Growth inhibition of human RPMI8226 cells assessed as cell growth at 5X10'-7 M after 48 hrs by sulforhodamine B assay; conditions: RPMI-8226, 48 h, read-out: Activity
OVCAR-8 = experiment: Growth inhibition of human OVCAR8 cells assessed as cell growth at 5X10'-9 M after 48 hrs by sulforhodamine B assay; conditions: OVCAR-8, 48 h, read-out: Activity
OVCAR-4 = experiment: Growth inhibition of human OVCAR4 cells assessed as cell growth at 5X10'-8 M after 48 hrs by sulforhodamine B assay; conditions: OVCAR-4, 48 h, read-out: Activity
MDA-MB-468 = experiment: Growth inhibition of human MDA-MB-468 cells assessed as cell growth at 5X10'-6 M after 48 hrs by sulforhodamine B assay; conditions: MDA-MB-468, 48 h, read-out: Activity
SN12C = experiment: Growth inhibition of human SN12C cells assessed as cell growth at 5X10'-5 M after 48 hrs by sulforhodamine B assay; conditions: read-out: Activity
ACHN = experiment: Growth inhibition of human ACHN cells assessed as cell growth at 5X10'-5 M after 48 hrs by sulforhodamine B assay; conditions: read-out: Activity
CCRF-CEM = experiment: Growth inhibition of human CCRF-CEM cells assessed as cell growth at 5X10'-6 M after 48 hrs by sulforhodamine B assay; conditions: read-out: Activity
MOLT-4 = experiment: Growth inhibition of human MOLT4 cells assessed as cell growth at 5X10'-6 M after 48 hrs by sulforhodamine B assay; conditions: MOLT-4, 48 h, read-out: Activity
SK-MEL-28 = experiment: Growth inhibition of human SK-MEL-28 cells assessed as cell growth at 5X10'-7 M after 48 hrs by sulforhodamine B assay; conditions: SK-MEL-28, 48 h, read-out: Activity
A498 = experiment: Growth inhibition of human A498 cells assessed as cell growth at 5X10'-9 M after 48 hrs by sulforhodamine B assay; conditions: A498, 48 h, read-out: Activity
IGROV-1 = experiment: Growth inhibition of human IGROV1 cells assessed as cell growth at 5X10'-8 M after 48 hrs by sulforhodamine B assay; conditions: IGROV-1, 48 h, read-out: Activity
OVCAR-5 = experiment: Growth inhibition of human OVCAR5 cells assessed as cell growth at 5X10'-7 M after 48 hrs by sulforhodamine B assay; conditions: OVCAR-5, 48 h, read-out: Activity
TK-10 [2] = experiment: Growth inhibition of human TK10 cells assessed as cell growth at 5X10'-8 M after 48 hrs by sulforhodamine B assay; conditions: TK-10, 48 h, read-out: Activity
HCT-15 = experiment: Growth inhibition of human HCT15 cells assessed as cell growth at 5X10'-5 M after 48 hrs by sulforhodamine B assay; conditions: HCT-15, 48 h, read-out: Activity
NCI-H226 = experiment: Growth inhibition of human NCI-H226 cells assessed as cell growth at 5X10'-7 M after 48 hrs by sulforhodamine B assay; conditions: NCI-H226, 48 h, read-out: Activity
MDA-MB-435 = experiment: Growth inhibition of human MDA-MB-435 cells assessed as cell growth at 5X10'-6 M after 48 hrs by sulforhodamine B assay; conditions: MDA-MB-435, 48 h, read-out: Activity
NCI-H23 = experiment: Growth inhibition of human NCI-H23 cells assessed as cell growth at 5X10'-5 M after 48 hrs by sulforhodamine B assay; conditions: NCI-H23, 48 h, read-out: Activity
A549 = experiment: Growth inhibition of human A549/ATCC cells assessed as cell growth at 5X10'-7 M after 48 hrs by sulforhodamine B assay; conditions: A549, 48 h, read-out: Activity
SF-295 = experiment: Growth inhibition of human SF295 cells assessed as cell growth at 5X10'-7 M after 48 hrs by sulforhodamine B assay; conditions: SF-295, 48 h, read-out: Activity
TK-10 [3] = experiment: Growth inhibition of human TK10 cells assessed as cell growth at 5X10'-6 M after 48 hrs by sulforhodamine B assay; conditions: TK-10, 48 h, read-out: Activity
SK-MEL-2 [4] = experiment: Growth inhibition of human SK-MEL-2 cells assessed as cell growth at 5X10'-8 M after 48 hrs by sulforhodamine B assay; conditions: SK-MEL-2, 48 h, read-out: Activity
NCI-H322M = experiment: Growth inhibition of human NCI-H322M cells assessed as cell growth at 5X10'-8 M after 48 hrs by sulforhodamine B assay; conditions: read-out: Activity
LOX IMVI = experiment: Growth inhibition of human LOXIMVI cells assessed as cell growth at 5X10'-9 M after 48 hrs by sulforhodamine B assay; conditions: read-out: Activity
SK-MEL-2 [5] = experiment: Growth inhibition of human SK-MEL-2 cells assessed as cell growth at 5X10'-6 M after 48 hrs by sulforhodamine B assay; conditions: SK-MEL-2, 48 h, read-out: Activity
COLO 205 = experiment: Growth inhibition of human COLO205 cells assessed as cell growth at 5X10'-6 M after 48 hrs by sulforhodamine B assay; conditions: COLO 205, 48 h, read-out: Activity
SW-620 = experiment: Growth inhibition of human SW620 cells assessed as cell growth at 5X10'-5 M after 48 hrs by sulforhodamine B assay; conditions: SW-620, 48 h, read-out: Activity
M14 = experiment: Growth inhibition of human M14 cells assessed as cell growth at 5X10'-7 M after 48 hrs by sulforhodamine B assay; conditions: M14, 48 h, read-out: Activity
U-251 = experiment: Growth inhibition of human U251 cells assessed as cell growth at 5X10'-8 M after 48 hrs by sulforhodamine B assay; conditions: U-251, 48 h, read-out: Activity
KM12 [6] = experiment: Growth inhibition of human KM12 cells assessed as cell growth at 5X10'-5 M after 48 hrs by sulforhodamine B assay; conditions: KM12, 48 h, read-out: Activity
NCI-H522 = experiment: Growth inhibition of human NCI-H522 cells assessed as cell growth at 5X10'-7 M after 48 hrs by sulforhodamine B assay; conditions: NCI-H522, 48 h, read-out: Activity
OVCAR-3 = experiment: Growth inhibition of human OVCAR3 cells assessed as cell growth at 5X10'-6 M after 48 hrs by sulforhodamine B assay; conditions: OVCAR-3, 48 h, read-out: Activity
Malme-3M = experiment: Growth inhibition of human MALME-3M cells assessed as cell growth at 5X10'-8 M after 48 hrs by sulforhodamine B assay; conditions: read-out: Activity

SMILES	growth at 5 µM (HL-60(TB))	growth at 5 µM (SK-MEL-5)	growth at 0.5 µM (KM12 [1])	growth at 0.5 µM (RPMI-8226)	growth at 0.005 µM (OVCAR-8)	growth at 0.05 µM (OVCAR-4)	growth at 5 µM (MDA-MB-468)	growth at 50 µM (SN12C)	growth at 50 µM (ACHN)	growth at 5 µM (CCRF-CEM)	growth at 5 µM (MOLT-4)	growth at 0.5 µM (SK-MEL-28)	growth at 0.005 µM (A498)	growth at 0.05 µM (IGROV-1)	growth at 0.5 µM (OVCAR-5)	growth at 0.05 µM (TK-10 [2])	growth at 50 µM (HCT-15)	growth at 0.5 µM (NCI-H226)	growth at 5 µM (MDA-MB-435)	growth at 50 µM (NCI-H23)	other results
COc1cc(-c2nn(-c3cccc(NC(=O)Nc4cccc(C(F)(F)F)c4)c3)cc2-c2ccncc2)ccc1Cl	4%	-97%	55%	40%	99%	96%	-33%	-7%	-7%	-1%	-14%	87%	92%	96%	80%	93%	-29%	84%	-47%	-37%	growth at 0.5 µM (A549): 62%; growth at 0.5 µM (SF-295): 39%; growth at 5 µM (TK-10 [3]): 10%; growth at 0.05 µM (SK-MEL-2 [4]): 98%; growth at 0.05 µM (NCI-H322M): 92%; growth at 0.005 µM (LOX IMVI): 95%; growth at 5 µM (SK-MEL-2 [5]): -67%; growth at 5 µM (COLO 205): -78%; growth at 50 µM (SW-620): -6%; growth at 0.5 µM (M14): 73%; growth at 0.05 µM (U-251): 98%; growth at 50 µM (KM12 [6]): -47%; growth at 0.5 µM (NCI-H522): 65%; growth at 5 µM (OVCAR-3): -42%; growth at 0.05 µM (Malme-3M): 87%
COc1cc(-c2nn(-c3cccc(NC(=O)Nc4cc(C(F)(F)F)cc(C(F)(F)F)c4)c3)cc2-c2ccncc2)ccc1Cl	8%	-96%	53%	38%	101%	92%	-42%	-45%	-34%	-17%	-4%	89%	90%	105%	82%	98%	-75%	83%	-57%	-59%	growth at 0.5 µM (A549): 52%; growth at 0.5 µM (SF-295): 45%; growth at 5 µM (TK-10 [3]): -34%; growth at 0.05 µM (SK-MEL-2 [4]): 115%; growth at 0.05 µM (NCI-H322M): 103%; growth at 0.005 µM (LOX IMVI): 101%; growth at 5 µM (SK-MEL-2 [5]): -73%; growth at 5 µM (COLO 205): -94%; growth at 50 µM (SW-620): -65%; growth at 0.5 µM (M14): 71%; growth at 0.05 µM (U-251): 94%; growth at 50 µM (KM12 [6]): -68%; growth at 0.5 µM (NCI-H522): 60%; growth at 5 µM (OVCAR-3): -69%; growth at 0.05 µM (Malme-3M): 104%
COc1cc(-c2nn(-c3cccc(NC(=O)c4cccc(C(F)(F)F)c4)c3)cc2-c2ccncc2)ccc1Cl	16%	-38%	89%	88%	97%	98%	-4%	24%	14%	6%	23%	87%	78%	95%	85%	97%	8%	84%	-56%	-3%	growth at 0.5 µM (A549): 91%; growth at 0.5 µM (SF-295): 83%; growth at 5 µM (TK-10 [3]): 36%; growth at 0.05 µM (SK-MEL-2 [4]): 97%; growth at 0.05 µM (NCI-H322M): 88%; growth at 0.005 µM (LOX IMVI): 94%; growth at 5 µM (SK-MEL-2 [5]): 8%; growth at 5 µM (COLO 205): 1%; growth at 50 µM (SW-620): 19%; growth at 0.5 µM (M14): 91%; growth at 0.05 µM (U-251): 94%; growth at 50 µM (KM12 [6]): 7%; growth at 0.5 µM (NCI-H522): 79%; growth at 5 µM (OVCAR-3): -28%; growth at 0.05 µM (Malme-3M): 82%
O=C(Nc1cccc(-n2cc(-c3ccncc3)c(-c3ccc(Cl)c(O)c3)n2)c1)Nc1cc(C(F)(F)F)cc(C(F)(F)F)c1	3%	-94%	51%	49%	101%	95%	-14%	-48%	-95%	3%	-5%	84%	79%	102%	83%	107%	-74%	79%	-31%	-75%	growth at 0.5 µM (A549): 37%; growth at 0.5 µM (SF-295): 61%; growth at 5 µM (TK-10 [3]): -13%; growth at 0.05 µM (SK-MEL-2 [4]): 113%; growth at 0.05 µM (NCI-H322M): 104%; growth at 0.005 µM (LOX IMVI): 98%; growth at 5 µM (SK-MEL-2 [5]): -28%; growth at 5 µM (COLO 205): -94%; growth at 50 µM (SW-620): -75%; growth at 0.5 µM (M14): 59%; growth at 0.05 µM (U-251): 93%; growth at 50 µM (KM12 [6]): -85%; growth at 0.5 µM (NCI-H522): 65%; growth at 5 µM (OVCAR-3): -70%; growth at 0.05 µM (Malme-3M): 100%
O=C(Nc1cccc(-n2cc(-c3ccncc3)c(-c3ccc(Cl)c(O)c3)n2)c1)c1ccc(N2CCOCC2)c(C(F)(F)F)c1	39%	31%	85%	83%	101%	100%	63%	39%	8%	26%	32%	91%	92%	95%	98%	92%	-7%	99%	28%	-13%	growth at 0.5 µM (A549): 92%; growth at 0.5 µM (SF-295): 93%; growth at 5 µM (TK-10 [3]): 94%; growth at 0.05 µM (SK-MEL-2 [4]): 98%; growth at 0.05 µM (NCI-H322M): 104%; growth at 0.005 µM (LOX IMVI): 95%; growth at 5 µM (SK-MEL-2 [5]): 34%; growth at 5 µM (COLO 205): 87%; growth at 50 µM (SW-620): -31%; growth at 0.5 µM (M14): 84%; growth at 0.05 µM (U-251): 101%; growth at 50 µM (KM12 [6]): 1%; growth at 0.5 µM (NCI-H522): 92%; growth at 5 µM (OVCAR-3): 49%; growth at 0.05 µM (Malme-3M): 87%
